Experimental data taken from US6482819B1, “2,3-benzodiazepine derivatives” (Gyogyszerkutato Intezet Kft., priority 1997, dated 2002).

Legend:
[1] = tested on: CD 1 mice; experiment: Muscle relaxant activity, rotarod test; format: in vivo; conditions: Mus musculus, ip
Description: (§1) The muscle relaxant activity of the compounds of general formula (I) was measured in the “inclined screen” test of Randall [J. Pharmacol. Exp. Ther. 129, 163 (1960)] and in the rotarod test [J. Am. Pharm. Assoc. 46, 208 (1975)]. The compounds were administered in 3 i. p. doses to ten CD 1 mice in each dose group.

[2] = tested on: CD 1 mice; experiment: Muscle relaxant activity, inclined screen test; format: in vivo; conditions: Mus musculus, ip
Description: as §1

[3] = tested on: AMPA receptors (AMPA induced current, Purkinje cells); experiment: Inhibition of AMPA induced whole cell currents on Purkinje cells of the cerebellum; format: cell-based
Description: (§2) Inhibition of AMPA and Kainate Induced Transmembrane Currents
(§3) The effect of the compound of Example 17 on whole cell currents induced by 100 μM kainate or 5 μM AMPA, resp., was studied on Purkinje cells of the cerebellum according to the method of Bleakman et al. [Neuropharmacology 12, 1689 (1996)]. […] In this preparation kainate was also exerting its effect through the activation of AMPA receptors.

[4] = tested on: electroshock convulsions in mice; experiment: Anticonvulsive effect, electroshock test; format: in vivo; conditions: Mus musculus, po, 60 minutes pretreatment
Description: (§4) In Table I the anticonvulsive effect of some compounds of the invention in the electroshock test is presented [J. Pharmacol. Exp. Ther. 106, 319 (1952)]. The anticonvulsive effect was also studied in convulsions induced by various chemical agents, e. g. pentetrazole [J. Pharmacol. Exp. Ther 108, 168 (1953)], strychnine [J. Pharmacol. Exp. Ther. 129, 75 (1960)], bemegride, nicotine, bicuculline, 4-aminopyridine and 3-mercaptopropionic acid. The pretreatment period was 60 minutes. The test compounds were administered orally in 3 doses to 10 male CD 1 mice in each dose group.

[5] = tested on: bicuculline induced convulsions in mice; experiment: Anticonvulsive effect, bicuculline induced convulsions; format: in vivo; conditions: Mus musculus, po, 60 minutes pretreatment
Description: as §4

[6] = tested on: kainate (5 μM) induced spreading depression, isolated chicken retina; experiment: Inhibition of kainate induced spreading depression in the isolated chicken retina preparation; format: cell-based; conditions: Gallus gallus
Text: (§5) In the first model the “spreading depression” inducing effect of glutamate agonists was studied, while in the second model the transmembrane ion current induced by the activation of glutamate receptors was directly measured.
(§6) Inhibition of AMPA and Kainate Induced “Spreading depression” in the Isolated Chicken Retina Preparation
(§7) The kainate and AMPA antagonizing effect was studied in vitro in the retinal “spreading depression” model [M. J. Sheardown: Brain Res. 607, 189 (1993)]. The AMPA/kainate antagonists extend the latency of the kainate (5 μM) or AMPA (5 μM) induced development of “spreading depression”.

[7] = tested on: AMPA receptors (kainate induced current, Purkinje cells); experiment: Inhibition of kainate induced whole cell currents on Purkinje cells of the cerebellum; format: cell-based; conditions: 100 μM kainate, read-out: IC50 against kainate, whole cell currents
Description: as §2, §3

[8] = tested on: AMPA (5 μM) induced spreading depression, isolated chicken retina; experiment: Inhibition of AMPA induced spreading depression in the isolated chicken retina preparation; format: cell-based; conditions: Gallus gallus
Text: as §5, §6, §7

[9] = tested on: anesthesized rats, middle cerebral artery occlusion; experiment: Inhibition of focal ischemia, middle cerebral artery occlusion (MCAO) test; format: in vivo; conditions: for Infarcted area in percent of cerebral hemosphere / Score of infarcted area (size of infarcted area) / Change % of size of infarcted area: MCAO; for Change % of size of infarcted area: versus vehicle
Description: The focal ischemia inhibiting effect of the compound of Example 17 was studied on the “middle cerebral artery occlusion” (MCAO) test in anesthesized rats. […] After histological processing the developed infarcted area was measured by a computerized scanner program [R. T. Bartus: Stroke 11, 2265 (1994) and S. G. Sydserff: Brit. J. Pharmacol. 114, 1631 (1995)].

[10] = tested on: nicotine induced convulsions in mice; experiment: Anticonvulsive effect, nicotine induced convulsions; format: in vivo; conditions: Mus musculus, po, 60 minutes pretreatment
Description: as §4

[11] = tested on: pentetrazole induced convulsions in mice; experiment: Anticonvulsive effect, pentetrazole induced convulsions; format: in vivo; conditions: Mus musculus, po, 60 minutes pretreatment
Description: as §4

[12] = tested on: bemegride induced convulsions in mice; experiment: Anticonvulsive effect, bemegride induced convulsions; format: in vivo; conditions: Mus musculus, po, 60 minutes pretreatment
Description: as §4

SMILES | ED50 [1] [mg/kg] | ED50 [2] [mg/kg] | IC50 ([3]; Purkinje cells of the cerebellum, 5 μM AMPA, read-out: IC50 against AMPA, whole cell currents) [µM] | Inhibition of ion current induced by AMPA receptor activation relative to GYKI 52466 ([3]; Purkinje cells, compared by IC50 values) | ED50 [4] [mg/kg] | melting point [°C] | ED50 [5] [mg/kg] | IC50 [6] [µM] | IC50 [7] [µM] | IC50 [8] [µM] | Rate of cerebral cell damage induced by occlusion of the middle cerebral artery ([9]; 6×1 mg/kg i.v.) | Infarcted area in percent of cerebral hemosphere ([9]; 6 × 1 mg/kg i.v.) [%] | Score of infarcted area (size of infarcted area) ([9]; 6 × 1 mg/kg i.v.) | Change % of size of infarcted area ([9]; 6 × 1 mg/kg i.v.) [%] | Infarcted area in percent of cerebral hemosphere ([9]; 6 × 2 mg/kg i.v.) [%] | Score of infarcted area (size of infarcted area) ([9]; 6 × 2 mg/kg i.v.) | Change % of size of infarcted area ([9]; 6 × 2 mg/kg i.v.) [%] | ED50 [10] [mg/kg] | ED50 [11] [mg/kg] | ED50 [12] [mg/kg]
NCC(CC(=O)O)c1ccc(Cl)cc1 (stereo not drawn) [Baclofen, reference compound] | 13 | 26 |  |  |  |  |  |  |  |  |  |  |  |  |  |  |  |  |  | 
Cc1cn2c(n1)Cc1ccc(Cl)cc1C(c1ccc(N)cc1)=N2 [Example 17] | 16 | 36 | 2.02 | twice as strongly inhibited | 24 | 229 to 230 | 23 | 2.5 | 4.97 | 7.3 | significantly reduced | 13.4 ± 3.64 | 16122 ± 4368 | −60.2 | 11.0 ± 1.93 | 13229 ± 2313 | −67.4 | 13 |  | 
O=C1NC(=O)C(c2ccccc2)(c2ccccc2)N1 [Phenytoin, reference compound] |  |  |  |  | 10 |  |  |  |  |  |  |  |  |  |  |  |  | 12 | > 400 | > 200
